In patent US6426355B1, “Heterocyclic carboxamide-containing thiourea inhibitors of herpes viruses containing phenylenediamine group” (American Home Products, priority 1998, dated 2002):
In brackets after ≈: the same amount, converted by molar mass.

Tests used:
[1] = test system: HCMV recombinant mutant virus (RV145); test: HCMV microtiter plate assay (beta-glucuronidase reporter); type: cell-based, Human Cytomegalovirus; conditions: HCMV in human foreskin fibroblasts
In short: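 Human foreskin fibroblasts were infected with RV145 in the presence of inhibitor. β-glucuronidase under a viral promoter served as the replication marker. At 96 h post-infection, lysates in pH 7.0 phosphate with Triton X-100/sarkosyl were assayed colorimetrically or fluorometrically, and IC50 was estimated from varying inhibitor amounts.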

HSV-1 = test: HSV Antiviral (ELISA) assay; type: cell-based; conditions: HSV-1 in Vero cells
In short: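 Vero cells in DMEM/2% FBS pretreated with compound 30 min before HSV-1 infection (MOI 0.006), then ~24 h at 37 °C. Viral gD detected by ELISA with β-galactosidase secondary and 4-methylumbelliferyl-galactoside (ex 365/em 450 nm); IC50 from fluorescence versus untreated infected cells.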

VZV strain Ellen = test: VZV Antiviral (ELISA) assay; type: cell-based; conditions: VZV strain Ellen in HFF cells; for % inhibition 10 ug/ml VZV: at 10 ug/ml
In short: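 Cell-based ELISA: infected/uninfected HFF mix (VZV Ellen, MOI <0.1) exposed to compound in DMEM/2% FBS for 3 days at 37° C. Anti-gpII monoclonal plus β-galactosidase-linked secondary, detected as 4-methylumbelliferone fluorescence; IC50 derived by comparing fluorescence with versus without compound.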

Row | SMILES | IC50 (ug/ml) HCMV [1] [µg/mL] | IC50 (ug/ml) HSV (HSV-1) [µg/mL] | IC50 (ug/ml) VZV (VZV strain Ellen) | % inhibition 10 ug/ml VZV (VZV strain Ellen) [%]
1 | CC(N=[N+]=[N-])c1ccc(NC(=S)Nc2ccc(NC(=O)c3ccco3)cc2)cc1Cl (centres unmarked) [Example 486] | 0.045 (≈ 0.102 µM) | >10 | >10 µg/mL | 22
2 | O=C(Nc1ccc(NC(=S)Nc2cccc(CO)c2)cc1)c1ccco1 [Example 488] | 1.2 (≈ 3.27 µM) | >10 | >10 µg/mL | 13
3 | CN(C)c1ccc(Cl)cc1NC(=S)Nc1ccc(NC(=O)c2ccco2)cc1 [Example 489] | 0.17 (≈ 0.41 µM) | 5 (≈ 12.1 µM) | 3.5 µg/mL (≈ 8.44 µM) | 99
4 | O=C(Nc1ccc(NC(=S)Nc2ccc3[nH]cnc3c2)cc1)c1ccco1 [Example 494] | 3.5 (≈ 9.27 µM) | >10 | >10 µg/mL | 6
5 | Cc1nc2cc(NC(=S)Nc3ccc(NC(=O)c4ccco4)cc3)ccc2[nH]1 [Example 495] | 3 (≈ 7.66 µM) | >10 | >10 µg/mL | 27
6 | CN(C)c1ccc(Cl)cc1NC(=S)Nc1ccc(NC(=O)c2csnn2)cc1 [Example 500] | 0.021 (≈ 0.0485 µM) | >10 | >10 µg/mL | 48
7 | Nc1nccc(-c2ccc(NC(=S)Nc3ccc(NC(=O)c4csnn4)cc3)cc2Cl)n1 [Example 501] | 0.032 (≈ 0.0663 µM) | >10 | >10 µg/mL | 10
8 | CN(C)c1c(Cl)cccc1NC(=S)Nc1ccc(NC(=O)c2csnn2)cc1 [Example 503] | 0.053 (≈ 0.122 µM) | 8 (≈ 18.5 µM) | >10 µg/mL | 64
9 | CN(C)c1c(Cl)cccc1NC(=S)Nc1ccc(NC(=O)c2ccco2)cc1 [Example 505] | 0.2 (≈ 0.482 µM) | 10 (≈ 24.1 µM) | 8 µg/mL (≈ 19.3 µM) | 79
10 | O=C(Nc1ccc(NC(=S)Nc2cccc(I)c2)cc1)c1csnn1 [Example 508] | 0.013 (≈ 0.027 µM) | >10 | >10 µg/mL | 7
11 | CC(C)(C)c1cccc(NC(=S)Nc2ccc(NC(=O)c3csnn3)cc2)c1 [Example 509] | 0.03 (≈ 0.0729 µM) | >10 | >10 µg/mL | 31
12 | O=C(Nc1ccc(NC(=S)NCc2cccc(Cl)c2)cc1)c1ccco1 [Example 510] | 0.04 (≈ 0.104 µM) | 8 (≈ 20.7 µM) | >10 µg/mL | 19
13 | O=C(Nc1ccc(NC(=S)Nc2cccc(Br)c2)cc1)c1csnn1 [Example 513] | 0.011 (≈ 0.0253 µM) | >10 | >10 µg/mL | 10
14 | O=C(Nc1ccc(NC(=S)Nc2cc(C(F)(F)F)cc(C(F)(F)F)c2)cc1)c1ccco1 [Example 516] | 0.04 (≈ 0.0845 µM) | >10 | >10 µg/mL | 7
15 | Nc1c(Br)cc(NC(=S)Nc2ccc(NC(=O)c3csnn3)cc2)cc1Br [Example 521] | 0.04 (≈ 0.0757 µM) | 10 (≈ 18.9 µM) | 3 µg/mL (≈ 5.68 µM) | 97
16 | CN(C)c1cc(Cl)cc(NC(=S)Nc2ccc(NC(=O)c3csnn3)cc2)c1 [Example 522] | 0.025 (≈ 0.0577 µM) | >10 | >10 µg/mL | 32
17 | CN(C)c1cc(Cl)cc(NC(=S)Nc2ccc(NC(=O)c3ccco3)cc2)c1 [Example 524] | 0.055 (≈ 0.133 µM) | 4 (≈ 9.64 µM) | 2 µg/mL (≈ 4.82 µM) | 95

Row | SMILES | IC50 (ug/ml) HCMV [1] [µg/mL] | IC50 (ug/ml) HSV (HSV-1) [µg/mL] | IC50 (ug/ml) VZV (VZV strain Ellen) | % inhibition 10 ug/ml VZV (VZV strain Ellen) [%]
18 | O=C(Nc1ccc(NC(=S)Nc2ccc3[nH]nnc3c2)cc1)c1ccco1 [Example 526] | 3 (≈ 7.93 µM) | >10 | 2.5 µg/mL (≈ 6.61 µM) | 22
19 | O=C(Nc1ccc(NC(=S)NNc2cccc(Cl)c2)cc1)c1ccco1 [Example 528] | 0.25 (≈ 0.646 µM) | 3.2 (≈ 8.27 µM) | 5 µg/mL (≈ 12.9 µM) | 107
20 | Nc1c(Cl)cc(C(F)(F)F)cc1NC(=S)Nc1ccc(NC(=O)c2ccco2)cc1 [Example 530] | 0.15 (≈ 0.33 µM) | 5 (≈ 11 µM) | 6 µg/mL (≈ 13.2 µM) | 96
21 | O=C(Nc1ccc(NC(=S)Nc2cc(Br)cc(C(F)(F)F)c2)cc1)c1csnn1 [Example 532] | 0.009 (≈ 0.0179 µM) | >10 | 6 µg/mL (≈ 11.9 µM) | 
22 | Nc1c(Cl)cc(C(F)(F)F)cc1NC(=S)Nc1ccc(NC(=O)c2csnn2)cc1 [Example 534] | 0.05 (≈ 0.106 µM) | 7 (≈ 14.8 µM) | >10 µg/mL | 
23 | O=C(Nc1ccc(NC(=S)Nc2cc(N3CCCCC3)cc(C(F)(F)F)c2)cc1)c1csnn1 [Example 535] | 0.016 (≈ 0.0316 µM) | >10 | >10 µg/mL | 
24 | O=C(Nc1ccc(NC(=S)NCc2ccc(Cl)c(Cl)c2)cc1)c1csnn1 [Example 537] | 0.003 (≈ 0.00684 µM) | 9 (≈ 20.5 µM) | 10 µg/mL (≈ 22.8 µM) | 
25 | O=C(Nc1ccc(NC(=S)NCc2ccccc2)cc1)c1csnn1 [Example 539] | 0.036 (≈ 0.0974 µM) | >10 | >10 µg/mL | 
26 | O=C(Nc1ccc(NC(=S)NCc2ccc3c(c2)OCO3)cc1)c1csnn1 [Example 541] | 0.017 (≈ 0.0411 µM) | 7 (≈ 16.9 µM) | >10 µg/mL | 
27 | O=C(Nc1ccc(NC(=S)NCc2cc(C(F)(F)F)cc(C(F)(F)F)c2)cc1)c1csnn1 [Example 542] | 0.0011 (≈ 0.00218 µM) | >10 | >10 µg/mL | 
28 | O=C(Nc1ccc(NC(=S)NCc2ccccc2)cc1)c1ccco1 [Example 544] | 0.02 (≈ 0.0569 µM) | >10 | >10 µg/mL | 
29 | O=C(Nc1ccc(NC(=S)NCc2ccc(Cl)c(Cl)c2)cc1)c1ccco1 [Example 545] | 0.012 (≈ 0.0285 µM) | 3 (≈ 7.14 µM) | 7 µg/mL (≈ 16.7 µM) | 
30 | O=C(Nc1ccc(NC(=S)NCc2cc(C(F)(F)F)cc(C(F)(F)F)c2)cc1)c1ccco1 [Example 547] | 0.006 (≈ 0.0123 µM) | >10 | 10 µg/mL (≈ 20.5 µM) | 
31 | O=C(Nc1ccc(NC(=S)Nc2ccc(Br)c(C(F)(F)F)c2)cc1)c1csnn1 [Example 548] | 0.008 (≈ 0.0159 µM) | >10 | >lo | 
32 | O=C(Nc1ccc(NC(=S)Nc2ccc(OC(F)(F)F)c(Br)c2)cc1)c1csnn1 [Example 550] | 0.013 (≈ 0.0251 µM) | >10 | >10 µg/mL | 
33 | O=C(Nc1ccc(NC(=S)Nc2ccc(SC(F)(F)F)c(Cl)c2)cc1)c1ccco1 [Example 551] | 0.043 (≈ 0.0911 µM) | >10 | >10 µg/mL | 
34 | O=C(Nc1ccc(NC(=S)NCCc2cccc(F)c2)cc1)c1csnn1 [Example 554] | 0.01 (≈ 0.0249 µM) | >10 | 1.5 µg/mL (≈ 3.74 µM) | 
